According to ChEMBL document CHEMBL5247610, “Discovery of 5-((4-(pyridin-3-yl)pyrimidin-2-yl)amino)-1H-indole-2-carboxamide derivatives as novel anti-cancer agents targeting Nur77” (Eur J Med Chem, 2022):
Calls of active or inactive are those of the source. No cut-off for these calls is given here.

Key:
[1] = Cytotoxicity against human L02 cells assessed as cell viability at 10 uM incubated for 48 hrs by MTT assay; type: toxicity, cell-based; settings: read-out: Activity
[2] = tested on: HeLa; test: Antiproliferative activity against human HeLa cells assessed as reduction in cell viability incubated for 48 hrs by MTT assay; type: functional, cell-based
[3] = Selectivity index, ratio of IC50 for human L02 cells to IC50 for human MDA-MB-231 cells by MTT assay; type: toxicity; settings: L02 cells versus MDA-MB-231 cells, read-out: Ratio IC50
[4] = tested on: SMMC-7721; test: Antiproliferative activity against human SMMC-7721 cells assessed as reduction in cell viability incubated for 48 hrs by MTT assay; type: functional, cell-based; settings: SMMC-7721, 48 h
[5] = tested on: A549; test: Antiproliferative activity against human A549 cells assessed as reduction in cell viability incubated for 48 hrs by MTT assay; type: functional, cell-based; settings: A549, 48 h
[6] = tested on: HepG2; test: Antitumor activity against human HepG2 cells xenografted in BALB/c nude mouse assessed as increase in cleaved caspase 3 expression in tumor tissues at 50 mg/kg, ip administered once every day for 14 days by immunohistochemistry analysis; type: functional, organism-based; settings: time 14.0 day
[7] = tested on: HepG2; test: Induction of apoptosis in Nur77 overexpressing human HepG2 cells transfected with Myc-Nur77 assessed as induction of PARP cleavage at 5 uM incubated for 12 hrs by western blot analysis; type: functional, cell-based
[8] = Selectivity index, ratio of IC50 for human L02 cells to IC50 for human HepG2 cells by MTT assay; type: toxicity; settings: L02 cells versus HepG2 cells, read-out: Ratio IC50
[9] = molecular target: T1, Nuclear receptor subfamily 4immunitygroup A member 1 (Homo sapiens, UniProt P22736); test: Binding affinity to Nur77 ligand binding domain (unknown origin) by fluorescence quenching assay
[10] = tested on: MDA-MB-231; test: Antiproliferative activity against human MDA-MB-231 cells assessed as reduction in cell viability incubated for 48 hrs by MTT assay; type: functional, cell-based; settings: MDA-MB-231, 48 h
[11] = tested on: HepG2; test: Induction of apoptosis in human HepG2 cells assessed as necrotic cells at 10 uM incubated for 12 hrs by AnnexinV-FITC/PI staining based flow cytometry (reference value: 0.92%); type: functional
[12] = Selectivity index, ratio of IC50 for human L02 cells to IC50 for human Huh-7 cells by MTT assay; type: toxicity; settings: L02 cells versus Huh-7 cells, read-out: Ratio IC50
[13] = Toxicity in BALB/c nude mouse xenografted with human HepG2 cells assessed as effect on lung damage at 50 mg/kg ip administered once every day for 14 days by H and E staining based analysis; type: organism-based; settings: in vivo, 336 h, time 14 day
[14] = tested on: HepG2; test: Induction of apoptosis in human HepG2 cells assessed as mitochondrial membrane potential loss by measuring proportion of cells with depolarized MMP at 10 uM incubated for 12 hrs by JC-1 staining based flow cytometry (reference value: 5.81%); type: functional
[15] = molecular target: T1, Nuclear receptor subfamily 4immunitygroup A member 1; test: Binding affinity to pBind-Nur77-LBD (unknown origin) transfected in HEK293T cells co-transfected with pG5-Luc assessed as inhibition of Nur77 transcriptional activity by measuring inhibition of Nur77-driven luciferase activity at 5 uM incubated for 12 hrs by luciferase reporter gene assay; type: cell-based; settings: filed as modulator
[16] = tested on: HepG2; test: Antitumor activity against human HepG2 cells xenografted in BALB/c nude mouse assessed as induction of nuclear shrinkage in tumor tissues at 50 mg/kg, ip administered once every day for 14 days by H and E staining based analysis; type: functional, organism-based; settings: time 14.0 day
[17] = molecular target: T2, Retinoic acid receptor RXR-alpha (Homo sapiens) (UniProt P19793); test: Binding affinity to pBind-RXRalpha-LBD (unknown origin) transfected in HEK293T cells co-transfected with pG5-Luc at 5 uM incubated for 12 hrs by luciferase reporter gene assay; type: cell-based
T2 sequence (whole entry): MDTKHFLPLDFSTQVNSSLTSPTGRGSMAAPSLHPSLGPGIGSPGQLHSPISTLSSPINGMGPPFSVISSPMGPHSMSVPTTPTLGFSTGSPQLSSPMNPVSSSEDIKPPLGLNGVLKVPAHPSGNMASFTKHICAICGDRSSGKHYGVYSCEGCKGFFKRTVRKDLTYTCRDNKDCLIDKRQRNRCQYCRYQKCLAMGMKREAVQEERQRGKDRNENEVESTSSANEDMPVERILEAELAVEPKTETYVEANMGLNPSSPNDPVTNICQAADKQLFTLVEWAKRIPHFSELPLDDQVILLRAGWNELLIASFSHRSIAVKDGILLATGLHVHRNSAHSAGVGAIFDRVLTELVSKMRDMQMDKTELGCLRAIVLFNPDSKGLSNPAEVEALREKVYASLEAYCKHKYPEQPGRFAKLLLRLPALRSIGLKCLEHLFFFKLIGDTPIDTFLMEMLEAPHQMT

[18] = tested on: HepG2; test: Induction of apoptosis in human HepG2 cells transfected with Nur77 siRNA assessed as late apoptotic cells at 10 uM incubated for 12 hrs by AnnexinV-FITC/PI staining based flow cytometry (reference value: 1.98%); type: functional
[19] = tested on: HepG2; test: Induction of apoptosis in human HepG2 cells transfected with Nur77 siRNA assessed as early apoptotic cells at 10 uM incubated for 12 hrs by AnnexinV-FITC/PI staining based flow cytometry (reference value: 1.37%); type: functional
[20] = molecular target: T1, Nuclear receptor subfamily 4immunitygroup A member 1; test: Binding affinity to pBind-Nur77-LBD (unknown origin) transfected in HEK293T cells co-transfected with pG5-Luc assessed as inhibition of Nur77 transcriptional activity by measuring inhibition of Nur77-driven luciferase activity incubated for 12 hrs by luciferase reporter gene assay; type: cell-based; settings: filed as modulator, dose 1.25-5 µM
[21] = molecular target: T1, Nuclear receptor subfamily 4immunitygroup A member 1; test: Modulation of GFP-Nur77 (unknown origin) transfected in human HepG2 cells assessed as induction of Nur77 translocation from nucleus to mitochondria at 10 uM incubated for 3 hrs by confocal microscopy; settings: filed as modulator
[22] = molecular target: T1, Nuclear receptor subfamily 4immunitygroup A member 1; test: Modulation of Myc-Nur77 (unknown origin) transfected in HEK293T cells assessed as induction of Nur77 translocation from nucleus to cytoplasm at 10 uM incubated for 2 to 4 hrs by western blot analysis; type: cell-based; settings: filed as modulator, time 2-4 hrs

T1 sequence (P22736 whole entry, the tested form may be a part): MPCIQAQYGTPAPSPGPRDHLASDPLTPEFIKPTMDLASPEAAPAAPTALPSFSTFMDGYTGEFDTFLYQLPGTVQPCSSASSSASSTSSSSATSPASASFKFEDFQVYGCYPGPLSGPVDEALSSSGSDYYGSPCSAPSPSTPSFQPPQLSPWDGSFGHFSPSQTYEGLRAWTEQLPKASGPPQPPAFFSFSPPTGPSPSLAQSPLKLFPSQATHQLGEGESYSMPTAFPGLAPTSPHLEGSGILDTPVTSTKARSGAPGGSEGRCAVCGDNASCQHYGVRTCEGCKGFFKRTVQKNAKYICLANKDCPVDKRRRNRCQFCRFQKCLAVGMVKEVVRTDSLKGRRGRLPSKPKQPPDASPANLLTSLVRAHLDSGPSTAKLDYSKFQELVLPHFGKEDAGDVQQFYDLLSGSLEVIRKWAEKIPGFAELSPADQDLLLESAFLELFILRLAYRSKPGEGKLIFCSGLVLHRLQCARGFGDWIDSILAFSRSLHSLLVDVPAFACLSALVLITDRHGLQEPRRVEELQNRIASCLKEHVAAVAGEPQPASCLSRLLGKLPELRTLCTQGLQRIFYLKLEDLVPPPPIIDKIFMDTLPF

IC50 [2]: 3.75 µM | IC50 [4]: 5.91 µM | IC50 [5]: 6.63 µM | Kd [9]: 0.121 µM | IC50 [10]: 3.24 µM | Activity [15]: Active | Activity [17]: inactive | Activity [20]: Dose-Dependent Effect | Activity [21]: Active | Activity [22]: Active
Compound: CN(C)CCCNC(=O)c1cc2cc(Nc3nccc(-c4cccnc4)n3)ccc2[nH]1
viability at 48 h, 10 µM [1]: 53.4% | selectivity ratio [3]: 3.47 | Activity [6]: Active | Activity [7]: Active | selectivity ratio [8]: 1.24 | Activity [11]: 2.83% | selectivity ratio [12]: 3.14 | Activity [13]: Non-Toxic | Activity [14]: 21.34% | Activity [16]: Active | Activity [18]: 2.28% | Activity [19]: 1.92%
